The values that follow come from patent US20250127787A1, “METHODS FOR TREATING PERIPHERAL NEUROPATHY” (University of Pittsburgh - Of the Commonwealth System of …, priority 2021, published 2025).

The experiment relates to CD68. The experiment in a line: CD68 expression in PAC-CIPN rat spinal cord, Western immunoblotting. The format is in vivo. The following applies: 8-AG 5 mg/kg/day in drinking water. As to the method:
Animals: This study employed female Harlan Sprague Dawley (HSD) rats (3-4 mo; Envigo, Indianapolis, IN) and were divided into the following groups: 1) Control, 2) Cyclophosphamide (CYP, 75 mg/kg i.p. in saline vehicle; administered on days 0, 3 and 6 until sacrifice on day 8); 4) Paclitaxel (2 mg/kg i.p., 2 mg/kg i.p. in saline from a stock solution of 50/50 CremophorEL/ethanol); administered on days 0, 2, 4 and 6 until sacrifice on day 8; 4) 8-aminoguanine (8-AG; 5 mg/kg/day in drinking water; beginning 2 weeks prior to either CYP or PAC and continuing until sacrifice (day 8)). The dose of 8-AG was based on the experiments described above. […] All tissues (spinal cord and hindpaw epidermis) were removed from isoflurane anesthetized rats and the tissue was used for various experimental approaches as described below. At the end of tissue removal, animals were sacrificed by thoracotomy. […]
In general terms: In western blotting, separated proteins are transferred to a membrane and probed.

Consider `Nc1nc2[nH]c(N)nc2c(=O)[nH]1` [8-AG, 8-Aminoguanine], for which the “effect on PAC-induced increase in CD68 expression” value was “significantly reduced”.
